Columns and labels:
Dihydrofolate reductase [1] = molecular target: T1, Dihydrofolate reductase (Rattus norvegicus, UniProt Q920D2); assay: Inhibitory activity against rat liver dihydrofolate reductase at 10e8 M; conditions: read-out: I50
T1 sequence (Q920D2 whole entry): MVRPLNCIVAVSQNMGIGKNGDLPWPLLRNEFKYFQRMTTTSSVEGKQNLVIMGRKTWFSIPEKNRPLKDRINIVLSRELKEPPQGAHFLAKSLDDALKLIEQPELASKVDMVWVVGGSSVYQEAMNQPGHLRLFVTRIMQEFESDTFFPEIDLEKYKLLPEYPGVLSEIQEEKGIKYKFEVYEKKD

Dihydrofolate reductase [2] = molecular target: Dihydrofolate reductase (Neisseria gonorrhoeae, UniProt P04174); assay: Inhibitory activity against Neisseria gonorrhoeae dihydrofolate reductase at 10e8 M; conditions: read-out: I50
Dihydrofolate reductase (Neisseria gonorrhoeae, UniProt P04174), sequence (P04174 whole entry): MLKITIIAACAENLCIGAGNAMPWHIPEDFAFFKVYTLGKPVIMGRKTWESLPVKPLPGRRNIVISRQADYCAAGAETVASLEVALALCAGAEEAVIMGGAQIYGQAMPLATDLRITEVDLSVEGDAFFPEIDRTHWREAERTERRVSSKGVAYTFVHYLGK

Structure (SMILES): COc1cc2c(cc1OC)C(c1cnc(N)nc1N)CC2 (stereo not drawn)
- IC50 (Dihydrofolate reductase [1]): 410 µM
- IC50 (Dihydrofolate reductase [2]): 9.7 µM

Structure (SMILES): COc1ccc(Cc2cnc(N)nc2N)cc1OC [DIAVERIDINE]
- IC50 (Dihydrofolate reductase [1]): 70 µM
